Reference: ChEMBL document CHEMBL5131566, “Small-Molecule Thioesters as SARS-CoV-2 Main Protease Inhibitors: Enzyme Inhibition, Structure-Activity Relationships, Antiviral Activity, and X-ray Structure Determination” (J Med Chem, 2022)

Key:
[1] = biological target: T1, Replicase polyprotein 1ab (Severe acute respiratory syndrome coronavirus 2, UniProt P0DTD1); assay: Inhibition of recombinant his tagged SARS CoV-2 main protease expressed in Escherichia coli BL21 assessed as inhibition constant using Boc-Abu-Tle-Leu-Gln-AMC37 as fluorogenic substrate pre-incubated for 5 mins followed by substrate addition measured after 60 mins by FRET based assay
[2] = biological target: Replicase polyprotein 1ab (Severe acute respiratory syndrome coronavirus 2) (UniProt P0DTD1); assay: Time dependent inhibition of recombinant his tagged SARS CoV-2 main protease expressed in Escherichia coli BL21 assessed as ratio of Kinact/Ki using MCA-AVLQSGFR-K(DNP)-K-NH2 as substrate pre-incubated for 5 mins followed by substrate addition measured after 60 mins by FRET based assay
[3] = biological target: T1, Replicase polyprotein 1ab; assay: Inhibition of recombinant his tagged SARS CoV-2 main protease expressed in Escherichia coli BL21 using Boc-Abu-Tle-Leu-Gln-AMC37 as fluorogenic substrate pre-incubated for 5 mins followed by substrate addition measured after 60 mins by FRET based assay
Vero 76 = assay: Cytotoxicity against African green monkey Vero 76 cells assessed as reduction in cell […] at 10 uM incubated for 24 hrs by cell titer glo luminescent assay; assay type: toxicity, cell-based; conditions: chlorocebus sabaeus, vero 76, 24 h
[4] = Inhibition of recombinant SARS CoV-1 main protease expressed using MCA-AVLQSGFR-K(DNP)-K-NH2 as substrate incubated for 2 hrs by FRET based assay; parameters: species or system Severe acute respiratory syndrome-related coronavirus
Calu-3 = assay: Cytotoxicity against human Calu-3 cells assessed as reduction in cell […] at 10 uM incubated for 24 hrs by cell titer glo luminescent assay; assay type: toxicity, cell-based; conditions: calu-3, 24 h
SARS-CoV-2 [5] = assay: microbe, parasite or virus in culture; conditions: Severe acute respiratory syndrome coronavirus 2, Calu-3
[6] = Inhibition of MERS-CoV -Mpro using Ac-Abu-Tle-Leu-Gln-ACC as substrate incubated for 2 hrs by FRET based assay; parameters: species or system Middle East respiratory syndrome-related coronavirus
[7] = system: Severe acute respiratory syndrome-related coronavirus; assay: Inhibition of recombinant SARS CoV-1 main protease expressed using MCA-AVLQSGFR-K(DNP)-K-NH2 as substrate at 10 uM incubated for 2 hrs by FRET based assay
[8] = biological target: Replicase polyprotein 1ab (Severe acute respiratory syndrome coronavirus 2) (UniProt P0DTD1); assay: Inhibition of recombinant his tagged SARS CoV-2 main protease expressed in Escherichia coli BL21 using Boc-Abu-Tle-Leu-Gln-AMC37 as fluorogenic substrate at 10 uM pre-incubated for 5 mins followed by substrate addition measured after 60 mins by FRET based assay relative to control
SARS-CoV-2 [9] = assay: microbe, parasite or virus in culture; conditions: Severe acute respiratory syndrome coronavirus 2, Vero 76

| Compound | Ki [1] [µM] | Ratio [2] [M⁻¹ s⁻¹] | IC50 [3] [µM] | Activity (Vero 76) | Activity (Calu-3) | IC50 [6] [µM] | further results |
| --- | --- | --- | --- | --- | --- | --- | --- |
| Cc1nnc(SC(=O)c2cc3ccccc3o2)s1 | 0.0357 | 5190 | 0.316 | – | – | – | – |
| O=C(Sc1ncccn1)c1cc2ccccc2[nH]1 | 0.0141 | – | 0.0114 | Non-Toxic | Non-Toxic | 0.303 | IC50 [4]: 0.06 µM; EC50 (SARS-CoV-2 [5]): 0.111 µM; inhibition [7]: > 50% |
| O=C(Sc1nc2ccccc2s1)c1cc2ccccc2o1 | – | – | – | – | – | – | inhibition [8]: 14% |
| Cc1nnc(SC(=O)c2cc3ccccc3n2C)s1 | 0.295 | – | 0.349 | Non-Toxic | Non-Toxic | 0.223 | EC50 (SARS-CoV-2 [9]): 0.00458 µM; EC50 (SARS-CoV-2 [5]): 0.659 µM |
| O=C(Sc1ccc(Cl)cc1)c1cc2ccccc2[nH]1 | – | – | – | – | – | – | inhibition [8]: 4% |
| O=C(Sc1ncccn1)c1ccc2ccccc2n1 | – | – | 0.0206 | Non-Toxic | Non-Toxic | 0.613 | IC50 [4]: 0.253 µM; inhibition [7]: > 50% |
| O=C(Sc1nncs1)c1cc2ccccc2[nH]1 | 0.0744 | – | 0.143 | Non-Toxic | Non-Toxic | 0.535 | IC50 [4]: 3.21 µM; EC50 (SARS-CoV-2 [9]): 0.642 µM; EC50 (SARS-CoV-2 [5]): 0.562 µM; inhibition [7]: > 50% |
| Cc1cc(C)nc(SC(=O)c2ccc(C#Cc3ccccc3)o2)n1 | – | – | 0.288 | – | – | – | – |
| CCOc1ccc2cc(C(=O)Sc3nccc(C)n3)[nH]c2c1 | – | – | – | – | – | – | inhibition [8]: -8% |
| O=C(Sc1ncccn1)c1ccc(-c2ccccc2)s1 | – | – | 0.0137 | – | – | – | – |
| Cc1nnc(SC(=O)c2cccc3[nH]ccc23)s1 | – | – | 0.06 | Non-Toxic | Non-Toxic | 0.486 | EC50 (SARS-CoV-2 [5]): 0.367 µM |
| Cc1nnc(SC(=O)c2ccc3ccccc3c2)s1 | 0.0211 | – | 0.454 | Non-Toxic | Non-Toxic | 0.526 | IC50 [4]: 1.65 µM; EC50 (SARS-CoV-2 [5]): 0.045 µM; inhibition [7]: > 50% |
| O=C(Sc1nc2ccccc2s1)c1ccc(-c2ccccc2)s1 | 0.042 | 2100 | 0.125 | – | – | – | – |
| CSc1nnc(SC(=O)c2cc3ccccc3[nH]2)s1 | 0.043 | 11800 | 0.0914 | Non-Toxic | Non-Toxic | 1.13 | – |
| CCC(CC)COC(=O)[C@H](C)N[P@](=O)(OC[C@H]1O[C@@](C#N)(c2ccc3c(N)ncnn23)[C@H](O)[C@@H]1O)Oc1ccccc1 | – | – | – | Non-Toxic | Non-Toxic | – | EC50 (SARS-CoV-2 [9]): 0.00263 µM; EC50 (SARS-CoV-2 [5]): 0.0796 µM |
| Cc1ccnc(SC(=O)c2cc3ccccc3[nH]2)n1 | 0.0332 | – | 0.0876 | Non-Toxic | Non-Toxic | 1.31 | IC50 [4]: 1.52 µM; EC50 (SARS-CoV-2 [9]): 0.185 µM; EC50 (SARS-CoV-2 [5]): 0.734 µM; inhibition [7]: > 50% |
| Cc1nnc(SC(=O)c2cc3ccccc3[nH]2)n1C(=O)c1cc2ccccc2[nH]1 | 0.0773 | 12200 | 0.281 | – | – | – | – |
| Cc1nnc(SC(=O)c2ccc3cc[nH]c3c2)s1 | 0.186 | 5850 | 0.0547 | Non-Toxic | Non-Toxic | 0.271 | – |
| O=C(Sc1ncccn1)c1ccc(-c2ccccc2)o1 | – | – | 0.0181 | Non-Toxic | Non-Toxic | 0.079 | – |
| Cc1nnc(SC(=O)c2ccc(Br)o2)s1 | – | – | 0.481 | – | – | – | – |
| O=C(Sc1ccc(Cl)cc1Cl)c1cc2ccccc2[nH]1 | – | – | – | – | – | – | inhibition [8]: 9% |

| Compound | Ki [1] [µM] | Ratio [2] [M⁻¹ s⁻¹] | IC50 [3] [µM] | Activity (Vero 76) | Activity (Calu-3) | IC50 [6] [µM] | further results |
| --- | --- | --- | --- | --- | --- | --- | --- |
| Cc1nnc(SC(=O)c2ccc(-c3ccccc3)[nH]2)s1 | 0.605 | 5070 | 0.235 | – | – | – | – |
| O=C(Sc1nc2ccccc2s1)c1ccc(-c2ccccc2)o1 | 0.612 | 515 | 0.166 | – | – | – | – |
| CCOc1nnc(SC(=O)c2cc3ccccc3[nH]2)s1 | – | – | – | – | – | – | inhibition [8]: 37% |
| O=C(Oc1cncc(Cl)c1)c1cccc2[nH]ccc12 | – | – | – | Non-Toxic | Non-Toxic | – | EC50 (SARS-CoV-2 [9]): 0.00959 µM; EC50 (SARS-CoV-2 [5]): 0.0285 µM |
| Cc1nnc(SC(=O)c2cc3ccccc3[nH]2)s1 | – | – | 0.624 | – | – | – | – |
| O=C(Sc1nc2ccccc2s1)c1cc2ccccc2[nH]1 | 0.0726 | – | 0.117 | Non-Toxic | Non-Toxic | – | EC50 (SARS-CoV-2 [5]): 0.137 µM |
| COc1nnc(SC(=O)c2cc3ccccc3[nH]2)s1 | 0.0844 | – | 0.147 | Non-Toxic | Non-Toxic | 0.503 | EC50 (SARS-CoV-2 [5]): 0.0383 µM |
| COc1ccc2cc([C@H](C)C(=O)Sc3ncccn3)ccc2c1 | 0.021 | 33900 | 0.551 | – | – | – | – |
| Cc1cc(C)nc(SC(=O)c2cc3ccccc3[nH]2)n1 | 0.773 | 1790 | 2.03 | – | – | – | – |
| Cc1nnc(SC(=O)c2ccc3[nH]ccc3c2)s1 | 0.393 | 3370 | 0.0723 | Non-Toxic | Non-Toxic | 0.945 | IC50 [4]: 7.35 µM |
| O=C(Sc1nnc(C(F)(F)F)s1)c1ccc(C#Cc2ccccc2)o1 | – | – | – | – | – | – | inhibition [8]: 14% |
| O=C(Sc1nc2ccccc2s1)c1ccc(-c2ccc(Br)cc2)o1 | 0.013 | 1490 | 0.255 | – | – | – | – |
| O=C(Sc1nnc(C(F)(F)F)s1)c1cc2ccccc2[nH]1 | – | – | – | – | – | – | inhibition [8]: 26% |
| CC(C)C[C@H](NC(=O)OCc1ccccc1)C(=O)N[C@H](C=O)CC1CCNC1=O (stereo partly specified) | – | – | – | – | – | 0.078 | IC50 [4]: 0.0446 µM |
| Cc1nnc(SC(=O)c2cccc3cc[nH]c23)s1 | 0.25 | – | 0.159 | Non-Toxic | Non-Toxic | 0.196 | IC50 [4]: 2.15 µM; EC50 (SARS-CoV-2 [5]): 0.437 µM; inhibition [7]: > 50% |
| O=C(Sc1ncccn1)c1cc2ccccc2s1 | – | – | 0.0155 | – | – | – | – |
| Cc1nnc(SC(=O)c2ccc(C#Cc3ccccc3)o2)s1 | 0.0344 | 5200 | 0.25 | Non-Toxic | Non-Toxic | 0.378 | IC50 [4]: 2.76 µM; inhibition [7]: > 50% |
| Cc1nnc(SC(=O)c2cc3ccccc3[nH]2)o1 | 0.119 | 3880 | 1.22 | – | – | – | – |
| Cc1nnc(SC(=O)c2ccc(-c3ccccc3)o2)s1 | – | – | 0.0344 | Non-Toxic | Non-Toxic | – | EC50 (SARS-CoV-2 [5]): 0.1 µM |
| O=C(Sc1ncccn1)c1ccc(-c2ccc(Br)cc2)s1 | – | – | 0.0144 | Non-Toxic | Non-Toxic | – | – |
| O=C(Sc1nc2ccccc2s1)c1cc2ccccc2s1 | 0.161 | 2000 | 0.19 | – | – | – | – |
